Patent publication US6518278B1, “Carcinostatic substance for compatible administration, process of administrating same and process of rapidly inspecting same” (Debio Pharm S.A., priority 1994, dated 2003)
“Also recorded” adds a separate entry of the source.

What was measured:
Assay type in all cases: cell-based
living cells = assay: Fluorescence dye bonded to living cells: does the cell stay alive; conditions: dye bonded to living cells
Excerpt: As the said fluorescence dye, the above DAPI can be employed. Although the DAPI itself is known, the use for the observation of the cell division while keeping the cells alive is unknown. The present inventors have investigated such fluorescence dye as Hoechst 33258, acridine orange and acridine yellow other than the DAPI.

[1] = tested on: human leutecyte strain cells (RPMI-8402); assay: Rapid inspection of carcinostatic substances by counting divided cells with DAPI; conditions: for number of the divided cells compared with the control (FIG. 15): 0.05 μg/ml VCR, 0.05 μg/ml VDS, 20 μg/ml MST-16, with 1 μg/ml DAPI; for division phases of the divided cells (microscope observation): ratio of the divided cells increased after the initiation of the cultivation, no anaphase or telophase cells observed
Method: After over a certain number of cancer cells are prepared by cultivation, a carcinostatic substance is added to the cancer cells. The number of the cells under the cell division at the respective measuring times is counted while continuing the cultivation. […] Accordingly, the effectiveness of the carcinostatic substance can be inspected by counting the number of the cells under the cell division among a certain number (for example, one thousand) of cells several times, comparing the said number with that of the former counting or the previous counting thereof and grasping the progress of the cell division by means of the increase or the decrease of the above comparison. If the DAPI is added with the carcinostatic substance during this procedure, the accurate counting of the number of the divided cells can be performed because the cells under the any phase of the cell division can be recognized. When the number of the divided cells decreases as a result of the comparison between the measurement values, it is judged that the multiplication of the cancer cells is depressed, or the function of the carcinostatic substance is performed. When, on the other hand, the number of the divided cells increases compared with the control, a certain function of the carcinostatic substance is judged to be performed. […] To the respective cultivation liquids were added, together with 1 μg/ml of the DAPI, (1) the control (no addition of the carcinostatic substance), (2) 5 μg/ml of CPT (camptotecin), (3) 10 μg/ml of CPT-11 ([…]), (4) 0.06 μg/ml of ADR (adriamycin), (5) 0.05 μg/ml of DNR (daunomycin), (6) 1 μ/ml of etoposide, (7) 20 μg/ml of MST-16 (sopsoxane), (8) 1 μg/ml of […]), (9) μg/ml of Act-D (actinomycin D), (10) 0.1 μg/ml of mitoxantrone. (11) 20 μg/ml of 5-FU, (12) 10 μg/ml of Ara-C (cytosinarabinoside) (13) 50 μg/ml of hydroxyurea, (14) 2 μg/ml of Aphidicolin, (15) 10 μg/ml of MTX (mesotroxate), (16) 0.05 μg/ml of VCR (vincristin), (17) 0.05 μg/ml of […]). (5) μg/ml of cisplatin, (18) 10 μg/ml of bleomycin, (20)10 μg/ml of MMC (mitomycin C) and (21) 5 μg/ml of cyclophospamide (endoxane). The samples were sampled from the respective cultivation liquids after one hour, […], 24 hours and then every 24 hour from the initiation of the cultivation. The samples were evaluated in accordance with the procedures of the preceding Examples. The results are shown in a graph of FIG. 15.

[2] = tested on: human leutecyte strain cell (RPMI-8402); assay: Extinction effect of compatible administration of l-OHP and a compatible agent on tumor cells (compatible efficiency OE); conditions: for Compatible Effects of l-OHP and Compatible Agent, Simultaneous Administration: both added day 1
Method: In the evaluation of the extinction effect of the tumor cells of the respective combinations, a pure extinction effect produced by the compatible administration of the compatible agent and the l-OHP is calculated by subtracting an extinction effect of a control (no carcinostatic substance is employed).
The compatibly administration effect is calculated by employing an Equation (1) described later. When the value (%) calculated by this Equation is between 85 and 115%, the compatible administration effect is evaluated to be an additive effect. When the value is below 85%, it is evaluated to be below the additive effect. When the value is over 115%, it is evaluated to be a synergistic effect, ±15% is a reliability limit or a measurement error.
A target tumor cell was a human leutecyte strain cell (RPMI-8402 of Gibuko K.K.). To these cells was added blood serum of a cow embryo (15%, Gibuko K.K.) to prepare a cell floating liquid of which the number of the cells was 10^6/ml in a cultivation bottle (tradename; Sumiron of Sumitomo Bakelite o., Ltd.) having a volume of 6 ml. A plenty of the cultivation bottles having the cell floating liquid therein were prepared, and the following experiments were conducted while selecting one kind of a compatible agent among cisplatin, 5-FU, irinotecane, adriamycin, etoposide, mitomycin, mitoxantrone, bleomycin, vincristin and vindecin. The time schedules of the controls (no addition of medicines, addition of only the l-OHP and addition of only a compatible agent, and specified in the below items (1) to (4)) and of the compatible administration of the compatible agent and the l-OHP are shown in FIG. 10.
(1) No medicine was added (control).
(2) Only the l-OHP was added at a second day.
(3) A large amount of compatible agents were added at a first day ([…] of the cisplatin, 10 μg/ml of the 5-FU, 0.05 μg/ml of the adriamycin and 1 μg/ml of the etoposide, and for the comparison purpose, 0.05 μg/ml of the vincristin and 0.06 μg/ml of the vindecin). The adding amount of the irinotecano was fixed to 10 μg/ml, and the addition amount of the l-OHP was 5 μg/ml.
(4) A small amount of compatible agents were added at a first day (0.5 μg/ml of the cisplatin, 5 μg/ml of the 5-FU, 0.01 μg/ml of the adriamycin and 0.5 μg/ml of the etoposide, and for the comparison purpose, 0.01 μg/ml of the vincristin and 0.01 μg/ml of the vindecin). The adding amount of the irinotecane was fixed to 10 μg/ml, and the addition amount of the l-OHP was 1 μg/ml.
(5) The l-OHP and a large amount (the same as that of the above item (3) and so forth in the following items) of the compatible agents were simultaneously added at a first day.
(6) The l-OHP and a small amount (the same as that of the above item (4) and so forth in the following items) of the compatible agents were simultaneously added at a first day.
(7) The l-OHP was added at a first day and a large amount of the compatible agents were added at a second day.
(8) The l-OHP was added at a first day and a small amount of the compatible agents were added at a second day.
(9) The l-OHP was added at a first day and a large amount of the compatible agents were added at a third day.
(10) The l-OHP was added at a first day and a small amount of the compatible agents were added at a third day.
(11) The l-OHP was added at a first day and a large amount of the compatible agents were added at a fourth day.
(12) The l-OHP was added at a first day and a small amount of the compatible agents were added at a fourth day.
(13) A large amount of the compatible agents were added at a first day and the l-OHP was added at a second day.
(14) A small amount of the compatible agents were added at a first day and the l-OHP was added at a second day.
(15) A large amount of the compatible agents were added at a first day and the l-OHP was added at a third day.
(16) A small amount of the compatible agents were added at a first day and the l-OHP was added at a third day.

[3] = larger dosage of compatible agent (μg/ml: cisplatin 1, 5-FU 10, irinotecane 10, adriamycin 0.05, vincristin 0.05, vindecin 0.05, etoposide 1, bleomycin 10, mitoxantrone 0.1, mitomycine 1), l-OHP 1 μg/ml (5 μg/ml with irinotecane) added day 1
[4] = larger dosage of compatible agent (μg/ml: cisplatin 1, 5-FU 10, irinotecane 10, adriamycin 0.05, vincristin 0.05, vindecin 0.05, etoposide 1, bleomycin 10, mitoxantrone 0.1, mitomycine 1), l-OHP 1 μg/ml (5 μg/ml with irinotecane)
[5] = larger dosage of compatible agent added day 1 (μg/ml: cisplatin 1, 5-FU 10, irinotecane 10, adriamycin 0.05, vincristin 0.05, vindecin 0.05, etoposide 1, bleomycin 10, mitoxantrone 0.1, mitomycine 1), l-OHP 1 μg/ml (5 μg/ml with irinotecane)
[6] = smaller dosage of compatible agent (μg/ml: cisplatin 0.5, 5-FU 5, irinotecane 10, adriamycin 0.01, vincristin 0.01, vindecin 0.01, etoposide 0.5, bleomycin 1, mitoxantrone 0.05, mitomycine 0.5), l-OHP 1 μg/ml added day 1
[7] = smaller dosage of compatible agent (μg/ml: cisplatin 0.5, 5-FU 5, irinotecane 10, adriamycin 0.01, vincristin 0.01, vindecin 0.01, etoposide 0.5, bleomycin 1, mitoxantrone 0.05, mitomycine 0.5), l-OHP 1 μg/ml
[8] = smaller dosage of compatible agent added day 1 (μg/ml: cisplatin 0.5, 5-FU 5, irinotecane 10, adriamycin 0.01, vincristin 0.01, vindecin 0.01, etoposide 0.5, bleomycin 1, mitoxantrone 0.05, mitomycine 0.5), l-OHP 1 μg/ml

Row | Compound | toxicity of fluorescence dye to the cell (living cells) | number of the divided cells compared with the control (FIG. 15) [1] | division phases of the divided cells (microscope observation) [1] | compatible administration effect with l-OHP, summary in words [2] | Compatible Effects of l-OHP and Compatible Agent, Time Lag Administration, Addition Administration of Compatible Agent day 2 [2, 3] | Compatible Effects of l-OHP and Compatible Agent, Time Lag Administration, Addition Administration of Compatible Agent day 3 [2, 3] | Compatible Effects of l-OHP and Compatible Agent, Time Lag Administration, Addition Administration of Compatible Agent day 4 [2, 3] | Compatible Effects of l-OHP and Compatible Agent, Simultaneous Administration [2, 4] | Compatible Effects of l-OHP and Compatible Agent, Time Lag Administration, Addition Administration of l-OHP day 2 [2, 5] | Compatible Effects of l-OHP and Compatible Agent, Time Lag Administration, Addition Administration of l-OHP day 3 [2, 5] | Compatible Effects of l-OHP and Compatible Agent, Time Lag Administration, Addition Administration of l-OHP day 4 [2, 5] | Compatible Effects of l-OHP and Compatible Agent, Time Lag Administration, Addition Administration of Compatible Agent day 2 [2, 6] | Compatible Effects of l-OHP and Compatible Agent, Time Lag Administration, Addition Administration of Compatible Agent day 3 [2, 6] | Compatible Effects of l-OHP and Compatible Agent, Time Lag Administration, Addition Administration of Compatible Agent day 4 [2, 6] | Compatible Effects of l-OHP and Compatible Agent, Simultaneous Administration [2, 7] | Compatible Effects of l-OHP and Compatible Agent, Time Lag Administration, Addition Administration of l-OHP day 2 [2, 8] | Compatible Effects of l-OHP and Compatible Agent, Time Lag Administration, Addition Administration of l-OHP day 3 [2, 8] | Compatible Effects of l-OHP and Compatible Agent, Time Lag Administration, Addition Administration of l-OHP day 4 [2, 8]
1 | CN1CCN(c2ccc3[nH]c(-c4ccc5[nH]c(-c6ccc(O)cc6)nc5c4)nc3c2)CC1 [Hoechst 33258] | toxicity is too strong to keep the cell alive | – | – | – | – | – | – | – | – | – | – | – | – | – | – | – | – | –
2 | CC(C)COC(=O)OCN1C(=O)CN(CCN2CC(=O)N(COC(=O)OCC(C)C)C(=O)C2)CC1=O [MST-16, sopsoxane] | – | increase of the number of the divided cells was momentarily observed | the division prophase and the division metaphase | – | – | – | – | – | – | – | – | – | – | – | – | – | – | –
3 | CC[C@]1(O)C[C@H]2CN(CCc3c([nH]c4ccccc34)[C@@](C(=O)OC)(c3cc4c(cc3OC)N(C=O)[C@H]3[C@@](O)(C(=O)OC)[C@H](OC(C)=O)[C@]5(CC)C=CCN6CC[C@]43[C@@H]65)C2)C1 [vincristin] | – | remarkable increases of the numbers of the divided cells | the division prophase and the division metaphase | the additive effect at best; also recorded: no synergistic effects can be obtained in all the combinations and the additive effects can be obtained in most combinations | Δ (Δ: Below Additive Effect) | Δ (Δ: Below Additive Effect) | ◯ (◯: Additive Effect) | Δ (Δ: Below Additive Effect) | ◯ (◯: Additive Effect) | Δ (Δ: Below Additive Effect) | ◯ (◯: Additive Effect) | ◯ (◯: Additive Effect) | Δ (Δ: Below Additive Effect) | ◯ (◯: Additive Effect) | Δ (Δ: Below Additive Effect) | ◯ (◯: Additive Effect) | ◯ (◯: Additive Effect) | ◯ (◯: Additive Effect)
4 | CC[C@]1(O)C[C@@H]2CN(CCc3c([nH]c4ccccc34)[C@@](C(=O)OC)(c3cc4c(cc3OC)N(C)[C@H]3[C@@](O)(C(N)=O)[C@H](O)[C@]5(CC)C=CCN6CC[C@]43[C@@H]65)C2)C1 [vindecin] | – | remarkable increases of the numbers of the divided cells | the division prophase and the division metaphase | the additive effect at best; also recorded: no synergistic effects can be obtained in all the 14 combinations and the additive effects can be obtained in only three combinations | Δ (Δ: Below Additive Effect) | Δ (Δ: Below Additive Effect) | Δ (Δ: Below Additive Effect) | ◯ (◯: Additive Effect) | ◯ (◯: Additive Effect) | Δ (Δ: Below Additive Effect) | Δ (Δ: Below Additive Effect) | Δ (Δ: Below Additive Effect) | Δ (Δ: Below Additive Effect) | ◯ (◯: Additive Effect) | Δ (Δ: Below Additive Effect) | Δ (Δ: Below Additive Effect) | Δ (Δ: Below Additive Effect) | Δ (Δ: Below Additive Effect)
